# Data reported in patent US9302988B2, “Fluoromethyl-substituted pyrrole carboxamides” (GRÜNENTHAL GMBH, priority 2012, dated 2016).
# Molecular target: T1, Human CaV2.2 channels (Homo sapiens, UniProt Q00975)
# T1 construct: expressed in transfected cells
# Assay: Fluorescent assay for CaV2.2 channels using potassium depolarization to induce channel opening (FLIPR, Fluo-4)
# Format: cell-based
# Conditions: 3 μM test compound, 30 mM KCl, HEK293 cells stably expressing human CaV2.2; read-out: %-Inhib (CaV2.2) @3 μM @30 mM KCl
# Procedure, shortened: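 HEK293 cells stably co-expressing CaV2.2 with α2δ and β subunits plus Kir2.3 were Fluo-4 loaded, then preincubated 15 min at 25 °C with compound in 30 mM KCl buffer, pH 7.4. Depolarization was by adding buffer containing 210 mM KCl. Inhibition was taken from baseline-normalized peak fluorescence amplitude (ex 480/em 535 nm).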
# T1 sequence (Q00975 whole entry): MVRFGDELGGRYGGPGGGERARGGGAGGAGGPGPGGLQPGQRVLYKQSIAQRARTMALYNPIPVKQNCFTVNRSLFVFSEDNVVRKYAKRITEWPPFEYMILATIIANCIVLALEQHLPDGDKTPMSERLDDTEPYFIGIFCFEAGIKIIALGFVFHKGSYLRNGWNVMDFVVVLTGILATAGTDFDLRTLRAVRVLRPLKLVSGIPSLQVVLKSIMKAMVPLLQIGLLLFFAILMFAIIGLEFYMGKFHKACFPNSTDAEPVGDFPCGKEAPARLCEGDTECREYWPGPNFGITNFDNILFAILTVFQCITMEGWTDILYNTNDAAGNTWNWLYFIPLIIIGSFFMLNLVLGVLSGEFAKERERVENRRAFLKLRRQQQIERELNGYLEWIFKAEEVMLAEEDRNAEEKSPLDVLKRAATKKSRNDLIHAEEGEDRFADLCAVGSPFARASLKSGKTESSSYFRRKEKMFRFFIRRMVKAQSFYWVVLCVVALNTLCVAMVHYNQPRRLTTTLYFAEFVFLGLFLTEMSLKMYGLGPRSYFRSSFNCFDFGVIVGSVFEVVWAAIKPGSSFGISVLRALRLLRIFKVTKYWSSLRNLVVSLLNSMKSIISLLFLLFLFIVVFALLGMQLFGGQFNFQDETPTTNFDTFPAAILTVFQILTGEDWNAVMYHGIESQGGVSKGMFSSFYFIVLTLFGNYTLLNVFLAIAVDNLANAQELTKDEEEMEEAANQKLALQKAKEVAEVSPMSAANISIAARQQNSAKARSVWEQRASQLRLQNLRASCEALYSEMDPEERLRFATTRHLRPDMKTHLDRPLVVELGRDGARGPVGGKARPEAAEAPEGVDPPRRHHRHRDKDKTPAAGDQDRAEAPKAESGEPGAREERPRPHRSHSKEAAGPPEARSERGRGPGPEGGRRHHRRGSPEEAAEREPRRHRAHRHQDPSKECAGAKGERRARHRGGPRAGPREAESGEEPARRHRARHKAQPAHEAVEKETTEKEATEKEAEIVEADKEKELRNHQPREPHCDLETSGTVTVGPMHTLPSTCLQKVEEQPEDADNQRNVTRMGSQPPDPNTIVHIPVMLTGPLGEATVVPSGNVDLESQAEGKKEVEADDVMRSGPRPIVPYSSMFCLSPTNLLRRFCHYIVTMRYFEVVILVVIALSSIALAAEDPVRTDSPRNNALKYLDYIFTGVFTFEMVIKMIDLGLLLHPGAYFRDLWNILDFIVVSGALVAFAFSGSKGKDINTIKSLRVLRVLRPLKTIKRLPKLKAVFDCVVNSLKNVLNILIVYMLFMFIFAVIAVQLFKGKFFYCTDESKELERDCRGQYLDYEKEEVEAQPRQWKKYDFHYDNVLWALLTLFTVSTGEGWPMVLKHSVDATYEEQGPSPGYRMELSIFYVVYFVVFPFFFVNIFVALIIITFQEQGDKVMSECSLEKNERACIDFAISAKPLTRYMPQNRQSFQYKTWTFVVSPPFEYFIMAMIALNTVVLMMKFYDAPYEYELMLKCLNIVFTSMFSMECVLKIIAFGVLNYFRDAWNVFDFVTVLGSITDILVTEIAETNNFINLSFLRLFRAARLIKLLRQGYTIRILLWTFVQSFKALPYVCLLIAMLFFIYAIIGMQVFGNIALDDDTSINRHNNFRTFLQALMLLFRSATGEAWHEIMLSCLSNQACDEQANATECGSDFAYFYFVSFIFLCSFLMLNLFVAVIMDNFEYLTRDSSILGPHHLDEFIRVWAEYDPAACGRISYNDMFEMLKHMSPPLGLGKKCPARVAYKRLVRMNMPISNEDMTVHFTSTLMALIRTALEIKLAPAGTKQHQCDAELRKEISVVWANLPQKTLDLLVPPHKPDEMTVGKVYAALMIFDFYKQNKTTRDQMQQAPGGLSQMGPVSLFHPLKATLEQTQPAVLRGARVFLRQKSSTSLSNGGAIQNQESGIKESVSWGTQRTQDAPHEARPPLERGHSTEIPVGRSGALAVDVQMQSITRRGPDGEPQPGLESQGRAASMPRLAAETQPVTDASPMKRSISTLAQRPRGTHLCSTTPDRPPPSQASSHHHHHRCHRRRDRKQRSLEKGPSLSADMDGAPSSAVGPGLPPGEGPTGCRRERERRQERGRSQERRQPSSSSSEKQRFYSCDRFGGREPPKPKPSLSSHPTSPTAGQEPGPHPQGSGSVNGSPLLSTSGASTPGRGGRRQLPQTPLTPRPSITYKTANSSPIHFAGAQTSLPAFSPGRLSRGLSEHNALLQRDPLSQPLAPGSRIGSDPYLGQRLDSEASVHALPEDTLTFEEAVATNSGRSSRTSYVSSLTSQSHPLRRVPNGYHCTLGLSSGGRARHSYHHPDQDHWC
# T1 sequence (P54289 25-1103, further chain): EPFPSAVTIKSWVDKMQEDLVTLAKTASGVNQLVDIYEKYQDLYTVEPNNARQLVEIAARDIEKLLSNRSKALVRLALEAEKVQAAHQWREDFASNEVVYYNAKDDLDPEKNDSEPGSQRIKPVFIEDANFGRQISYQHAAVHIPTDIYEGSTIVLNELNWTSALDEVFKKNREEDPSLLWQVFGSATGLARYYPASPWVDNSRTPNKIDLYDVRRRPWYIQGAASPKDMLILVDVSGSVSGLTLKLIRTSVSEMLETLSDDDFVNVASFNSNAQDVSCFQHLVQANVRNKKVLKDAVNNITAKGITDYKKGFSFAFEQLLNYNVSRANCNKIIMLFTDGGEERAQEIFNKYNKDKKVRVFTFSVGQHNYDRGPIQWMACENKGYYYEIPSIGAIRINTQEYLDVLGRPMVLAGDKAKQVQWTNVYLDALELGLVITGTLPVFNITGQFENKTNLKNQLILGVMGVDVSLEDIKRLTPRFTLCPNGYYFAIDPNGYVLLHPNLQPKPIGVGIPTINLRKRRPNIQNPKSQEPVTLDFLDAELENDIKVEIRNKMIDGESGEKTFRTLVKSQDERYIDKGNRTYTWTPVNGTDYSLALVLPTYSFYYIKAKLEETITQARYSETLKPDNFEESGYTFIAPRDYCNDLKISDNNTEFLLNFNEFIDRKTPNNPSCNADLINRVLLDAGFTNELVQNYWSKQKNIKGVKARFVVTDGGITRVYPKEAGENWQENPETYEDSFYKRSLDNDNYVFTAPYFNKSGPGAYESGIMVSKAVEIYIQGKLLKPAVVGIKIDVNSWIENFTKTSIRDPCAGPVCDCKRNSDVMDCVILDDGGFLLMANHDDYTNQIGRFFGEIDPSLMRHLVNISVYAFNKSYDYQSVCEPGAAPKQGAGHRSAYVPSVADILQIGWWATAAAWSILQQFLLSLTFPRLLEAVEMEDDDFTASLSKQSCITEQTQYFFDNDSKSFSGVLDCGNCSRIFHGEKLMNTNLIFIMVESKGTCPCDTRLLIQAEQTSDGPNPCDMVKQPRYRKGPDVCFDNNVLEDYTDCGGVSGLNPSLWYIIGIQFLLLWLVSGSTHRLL
# T1 sequence (P54284 whole entry, further chain): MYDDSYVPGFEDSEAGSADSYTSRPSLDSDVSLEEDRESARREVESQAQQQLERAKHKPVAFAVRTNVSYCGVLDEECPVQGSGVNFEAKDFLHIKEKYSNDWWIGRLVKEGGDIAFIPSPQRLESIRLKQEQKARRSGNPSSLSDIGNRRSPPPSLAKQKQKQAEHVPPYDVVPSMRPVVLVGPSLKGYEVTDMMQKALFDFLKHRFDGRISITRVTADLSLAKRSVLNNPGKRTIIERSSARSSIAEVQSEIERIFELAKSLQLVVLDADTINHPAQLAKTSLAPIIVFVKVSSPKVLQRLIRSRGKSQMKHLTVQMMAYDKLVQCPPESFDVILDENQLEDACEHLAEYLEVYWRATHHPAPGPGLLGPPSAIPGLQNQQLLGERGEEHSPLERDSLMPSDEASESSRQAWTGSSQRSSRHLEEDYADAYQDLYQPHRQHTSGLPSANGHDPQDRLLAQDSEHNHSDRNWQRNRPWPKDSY
row,Compound,inhibition at 3 µM [%]
1,"Cc1c(-c2ccc(F)cc2)c(C(=O)N(C)C2CC2)n(Cc2ccccc2)c1C(F)(F)F [SC-221, 1-Benzyl-N-cyclopropyl-3-(4-fluorophenyl)-N,4-dimethyl-5-(trifluoromethyl)-1H-pyrrole-2-carboxylic acid amide]",> 95
2,"CCN(CCS(C)(=O)=O)C(=O)c1c(-c2ccc(Cl)cc2)cc(C(F)(F)F)n1Cc1ccccc1 [SC-190, 1-Benzyl-3-(4-chlorophenyl)-N-ethyl-N-(2-methylsulfonyl-ethyl)-5-(trifluoromethyl)-1H-pyrrole-2-carboxylic acid amide]",> 95
3,"Cc1c(-c2ccc(Cl)cc2)c(C(=O)N2CC(F)(F)C2)n(-c2cccc(Cl)c2)c1C(F)(F)F [SC-33, [1-(3-Chlorophenyl)-3-(4-chlorophenyl)-4-methyl-5-(trifluoromethyl)-1H-pyrrol-2-yl]-(3,3-difluoro-azetidin-1-yl)-methanone]",75 to 95
4,"CN(C(=O)c1c(-c2ccc(Cl)cc2)cc(C(F)(F)F)n1Cc1ccccc1)C(C)(C)CCO [SC-184, 1-Benzyl-3-(4-chlorophenyl)-N-(3-hydroxy-1,1-dimethyl-propyl)-N-methyl-5-(trifluoromethyl)-1H-pyrrole-2-carboxylic acid amide]",75 to 95
5,"O=C(c1c(-c2ccc(Cl)cc2)cc(C(F)(F)F)n1Cc1ccccc1)N1CCC(CO)C1 (stereo not drawn) [SC-181, [1-Benzyl-3-(4-chlorophenyl)-5-(trifluoromethyl)-1H-pyrrol-2-yl]-[3-(hydroxymethyl)-pyrrolidin-1-yl]-methanone]",75 to 95
6,"Cc1c(-c2ccc(OC(F)(F)F)cc2)c(C(=O)N(C)CC(C)(C)CO)n(Cc2ccccc2)c1C(F)(F)F [SC-235, 1-Benzyl-N-(3-hydroxy-2,2-dimethyl-propyl)-N,4-dimethyl-5-(trifluoromethyl)-3-[4-(trifluoromethyloxy)-phenyl]-1H-pyrrole-2-carboxylic acid amide]",75 to 95
7,"CN(CC(C)(C)S(C)(=O)=O)C(=O)c1c(-c2ccc(Cl)cc2)cc(C(F)(F)F)n1Cc1ccccc1 [SC-92, 1-Benzyl-3-(4-chlorophenyl)-N-methyl-N-(2-methyl-2-methylsulfonyl-propyl)-5-(trifluoromethyl)-1H-pyrrole-2-carboxylic acid amide]",> 95
8,"Cc1c(-c2ccc(F)c(Cl)c2)c(C(=O)N2CCOC(C)(C)C2)n(Cc2ccccc2)c1C(F)(F)F [SC-258, [1-Benzyl-3-(3-chloro-4-fluoro-phenyl)-4-methyl-5-(trifluoromethyl)-1H-pyrrol-2-yl]-(2,2-dimethyl-morpholin-4-yl)-methanone]",75 to 95
9,"CN(CC(C)(C)C#N)C(=O)c1c(-c2ccc(Cl)cc2)cc(C(F)(F)F)n1Cc1ccccc1 [SC-187, 1-Benzyl-3-(4-chlorophenyl)-N-(2-cyano-2-methyl-propyl)-N-methyl-5-(trifluoromethyl)-1H-pyrrole-2-carboxylic acid amide]",> 95
10,"CN(CC(C)(C)O)C(=O)c1c(-c2ccc(Cl)cc2)cc(C(F)(F)F)n1Cc1cccc(Cl)c1 [SC-70, 3-(4-Chlorophenyl)-1-[(3-chlorophenyl)-methyl]-N-(2-hydroxy-2-methyl-propyl)-N-methyl-5-(trifluoromethyl)-1H-pyrrole-2-carboxylic acid amide]",> 95
11,"Cc1c(-c2ccc(Cl)cc2)c(C(=O)N(C)C2(C(N)=O)CC2)n(Cc2ccccc2)c1C(F)(F)F [SC-49, 1-Benzyl-N-(1-carbamoyl-cyclopropyl)-3-(4-chlorophenyl)-N,4-dimethyl-5-(trifluoromethyl)-1H-pyrrole-2-carboxylic acid amide]",> 95
12,"Cc1c(-c2ccc(Cl)cc2F)c(C(=O)N2CCC(CO)C2)n(Cc2ccccc2)c1C(F)(F)F (stereo not drawn) [SC-166, [1-Benzyl-3-(4-chloro-2-fluoro-phenyl)-4-methyl-5-(trifluoromethyl)-1H-pyrrol-2-yl]-[3-(hydroxymethyl)-pyrrolidin-1-yl]-methanone]",> 95
13,"Cc1c(-c2ccc(Cl)cc2)c(C(=O)N2CCC(CO)C2)n(Cc2ccccc2)c1C(F)(F)F (stereo not drawn) [SC-117, [1-Benzyl-3-(4-chlorophenyl)-4-methyl-5-(trifluoromethyl)-1H-pyrrol-2-yl]-[3-(hydroxymethyl)-pyrrolidin-1-yl]-methanone]",75 to 95
14,"Cc1c(-c2ccc(F)c(Cl)c2)c(C(=O)N2CCOCC2)n(Cc2ccccc2)c1C(F)(F)F [SC-104, [1-Benzyl-3-(3-chloro-4-fluoro-phenyl)-4-methyl-5-(trifluoromethyl)-1H-pyrrol-2-yl]-morpholin-4-yl-methanone]",75 to 95
15,"Cc1c(-c2ccc(Cl)cc2)c(C(=O)N(C)CC(C)(C)C)n(Cc2ccccc2)c1C(F)F [SC-42, 1-Benzyl-3-(4-chlorophenyl)-5-(difluoro-methyl)-N-(2,2-dimethyl-propyl)-N,4-dimethyl-1H-pyrrole-2-carboxylic acid amide]",> 95
16,"Cc1cc(CN(C)C(=O)c2c(-c3ccc(Cl)cc3)c(C)c(C(F)(F)F)n2Cc2ccccc2)no1 [SC-142, 1-Benzyl-3-(4-chlorophenyl)-N,4-dimethyl-N-[(5-methyl-isoxazol-3-yl)-methyl]-5-(trifluoromethyl)-1H-pyrrole-2-carboxylic acid amide]",> 95
17,"Cc1c(-c2ccc(F)c(Cl)c2)c(C(=O)N(C)C2CC2)n(Cc2ccccc2)c1C(F)(F)F [SC-254, 1-Benzyl-3-(3-chloro-4-fluoro-phenyl)-N-cyclopropyl-N,4-dimethyl-5-(trifluoromethyl)-1H-pyrrole-2-carboxylic acid amide]",75 to 95
18,"Cc1c(-c2ccc(Cl)cc2)c(C(=O)N2CCNC(C)(C)C2)n(Cc2ccccc2)c1C(F)(F)F [SC-29, [1-Benzyl-3-(4-chlorophenyl)-4-methyl-5-(trifluoromethyl)-1H-pyrrol-2-yl]-(3,3-dimethyl-piperazin-1-yl)-methanone]",> 95
19,"Cc1c(-c2ccc(Cl)cc2F)c(C(=O)N2CCS(=O)(=O)CC2)n(Cc2ccccc2)c1C(F)(F)F [SC-173, [1-Benzyl-3-(4-chloro-2-fluoro-phenyl)-4-methyl-5-(trifluoromethyl)-1H-pyrrol-2-yl]-(1,1-dioxo-[1,4]thiazinan-4-yl)-methanone]",> 95
20,"O=C(c1c(-c2ccc(Cl)cc2)cc(C(F)(F)F)n1Cc1ccccc1)N1CCOCC1 [SC-01, [1-Benzyl-3-(4-chlorophenyl)-5-(trifluoromethyl)-1H-pyrrol-2-yl]-morpholin-4-yl-methanone]",> 95
21,"Cc1c(-c2ccc(Cl)cc2)c(C(=O)N(C)CC2(CO)CC2)n(Cc2ccccc2)c1C(F)(F)F [SC-115, 1-Benzyl-3-(4-chlorophenyl)-N-[[1-(hydroxymethyl)-cyclopropyl]-methyl]-N,4-dimethyl-5-(trifluoromethyl)-1H-pyrrole-2-carboxylic acid amide]",> 95
22,"Cc1c(-c2ccc(Cl)cc2)c(C(=O)N(C)Cc2ccncn2)n(Cc2ccccc2)c1C(F)(F)F [SC-144, 1-Benzyl-3-(4-chlorophenyl)-N,4-dimethyl-N-(pyrimidin-4-yl-methyl)-5-(trifluoromethyl)-1H-pyrrole-2-carboxylic acid amide]",> 95
23,"Cc1c(-c2ccc(Cl)cc2)c(C(=O)NC2CCOCC2)n(Cc2ccccc2)c1C(F)(F)F [SC-10, 1-Benzyl-3-(4-chlorophenyl)-4-methyl-N-tetrahydro-pyran-4-yl-5-(trifluoromethyl)-1H-pyrrole-2-carboxylic acid amide]",75 to 95
24,"Cc1c(-c2ccc(F)c(Cl)c2)c(C(=O)N(C)CC(C)(C)CO)n(Cc2ccccc2)c1C(F)(F)F [SC-251, 1-Benzyl-3-(3-chloro-4-fluoro-phenyl)-N-(3-hydroxy-2,2-dimethyl-propyl)-N,4-dimethyl-5-(trifluoromethyl)-1H-pyrrole-2-carboxylic acid amide]",75 to 95
25,"CCS(=O)(=O)CCN(C)C(=O)c1c(-c2ccc(Cl)cc2)cc(C(F)(F)F)n1Cc1ccccc1 [SC-192, 1-Benzyl-3-(4-chlorophenyl)-N-[2-(ethylsulfonyl)-ethyl]-N-methyl-5-(trifluoromethyl)-1H-pyrrole-2-carboxylic acid amide]",> 95
26,"Cc1c(-c2ccc(Cl)cc2)c(C(=O)N2CCOCC2)n(Cc2cccc(Cl)c2)c1C(F)(F)F [SC-25, [3-(4-Chlorophenyl)-1-[(3-chlorophenyl)-methyl]-4-methyl-5-(trifluoromethyl)-1H-pyrrol-2-yl]-morpholin-4-yl-methanone]",75 to 95
27,"CN(CCN1CCCC1)CC(C)(C)CN(C)C(=O)c1c(-c2ccc(Cl)cc2)cc(C(F)(F)F)n1Cc1ccccc1 [SC-203, 1-Benzyl-3-(4-chlorophenyl)-N-[2,2-dimethyl-3-[methyl-(2-pyrrolidin-1-yl-ethyl)-amino]-propyl]-N-methyl-5-(trifluoromethyl)-1H-pyrrole-2-carboxylic acid amide]",> 95
28,"Cc1c(-c2ccc(OC(F)(F)F)cc2)c(C(=O)N2CCOCC2)n(Cc2ccccc2)c1C(F)(F)F [SC-105, [1-Benzyl-4-methyl-5-(trifluoromethyl)-3-[4-(trifluoromethyloxy)-phenyl]-1H-pyrrol-2-yl]-morpholin-4-yl-methanone]",75 to 95
29,"Cc1c(-c2ccc(Cl)cc2)c(C(=O)N(C)C2CCOCC2)n(Cc2ccccc2)c1C(F)(F)F [SC-11, 1-Benzyl-3-(4-chlorophenyl)-N,4-dimethyl-N-tetrahydro-pyran-4-yl-5-(trifluoromethyl)-1H-pyrrole-2-carboxylic acid amide]",> 95
30,"Cc1c(-c2ccc(C(F)(F)F)cc2)c(C(=O)N(C)C(C)(C)CO)n(Cc2ccccc2)c1C(F)(F)F [SC-231, 1-Benzyl-N-(2-hydroxy-1,1-dimethyl-ethyl)-N,4-dimethyl-5-(trifluoromethyl)-3-[4-(trifluoromethyl)-phenyl]-1H-pyrrole-2-carboxylic acid amide]",> 95
